From BigSolDB 2.1

N#Cc1cccc([N+](=O)[O-])c1
solubility (mole fraction)
Conditions | 278.15 K | 283.15 K | 288.15 K | 293.15 K | 298.15 K | 303.15 K | 308.15 K | 313.15 K | 318.15 K
in acetic acid | – | – | – | 0.0354 | 0.04 | 0.0459 | 0.0525 | 0.0608 | 0.0713
in acetone | 0.0789 | 0.0905 | 0.106 | 0.123 | 0.142 | 0.164 | 0.187 | 0.213 | 0.242
in acetonitrile | 0.0473 | 0.0565 | 0.0682 | 0.0814 | 0.0973 | 0.116 | 0.138 | 0.164 | 0.196
in cyclohexane | – | 0.000365 | 0.000472 | 0.000599 | 0.000768 | 0.00097 | 0.00121 | 0.00153 | 0.00193
in ethanol | 0.00312 | 0.0038 | 0.00473 | 0.00582 | 0.00715 | 0.00873 | 0.0106 | 0.013 | 0.0159
in ethyl acetate | 0.0353 | 0.044 | 0.0565 | 0.0706 | 0.0876 | 0.109 | 0.135 | 0.166 | 0.203
in isobutanol | 0.00162 | 0.00207 | 0.00265 | 0.0033 | 0.00409 | 0.00504 | 0.00624 | 0.00773 | 0.00959
in isopropanol | 0.0017 | 0.00215 | 0.00274 | 0.0035 | 0.00446 | 0.00565 | 0.00711 | 0.00905 | 0.0114
in methanol | 0.0041 | 0.00501 | 0.00622 | 0.0076 | 0.00926 | 0.0112 | 0.0134 | 0.0162 | 0.0195
in n-butanol | 0.00233 | 0.00286 | 0.00349 | 0.00428 | 0.00538 | 0.00683 | 0.00848 | 0.0104 | 0.0129
in n-propanol | 0.0025 | 0.00308 | 0.0038 | 0.00475 | 0.00592 | 0.0073 | 0.00897 | 0.0111 | 0.0135
in toluene | 0.0259 | 0.0304 | 0.0374 | 0.0458 | 0.0557 | 0.067 | 0.0813 | 0.0982 | 0.119
